Laboratory results from patent US20240101599A1, “PEPTIDE, CELL GROWTH PROMOTER, PROTEIN PRODUCTION PROMOTER, CULTURE MEDIUM, CELL GROWTH METHOD USING PEPTIDE, AND PROTEIN PRODUCTION METHOD USING PEPTIDE” (Maruhachi Muramatsu, Inc., priority 2020, published 2024).
Peptide text beside a SMILES is read from it.

How the values were obtained:
CHO-K1 = test: Relationship between concentration of each peptide solution and viable cell count (absorbance); format: cell-based; details: for Absorbance (450 nm): 5 days, MEMα without FBS, n = 3 average, 0 mM = 0.0000; for cell growth promotion, order of the peptides: in words, promoted in the order GEK, DGP, AGK, GPP, GGP, AEK, AGG, ASN, EGK (strongest first)
Experimental: Peptides having the sequences of Gly-Glu-Lys (GEK), Asp-Gly-Pro (DGP), Ala-Gly-Lys (AGK), Gly-Pro-Pro (GPP), Gly-Gly-Pro (GGP), Ala-Glu-Lys (AEK), Ala-Gly-Gly (AGG), Ala-Ser-Asn (ASN), and Glu-Gly-Lys (EGK), and Gly-Gly-Gly (GGG) are synthesized to prepare each of peptide solutions at 10-fold concentrations shown in Tables 1 to 10.
A cell suspension prepared such that CHO-K1 (RI KEN BioResource Research Center, cell number: RCB2330) was at 3×10^4 cells/mL was seeded in a 96-well plate at 100 μL/well and cultured in an incubator at 37° C. and 5% CO2 for 24 hours. As a culture medium, an MEMα culture medium (Gibco) containing 10% FBS was used.
After removing the culture medium from each well and washing with the MEMα culture medium (100 μL), 90 μL of a new MEMa culture medium was dispensed into each well, and each peptide solution (10 μL) was added (total 100 μL/well) such that final concentrations were within a range of 0 mM to 5 mM as shown in Tables 1 to 10 to perform culture for 5 days. A similar culture test was performed using a system containing neither peptide nor FBS as a comparative sample. After culturing for 5 days, 10 μL/well of a viable cell count measurement reagent SF (Nacalai Tesque Inc.) was added, and a color reaction was carried out in an incubator at 37° C. and 5% CO2 for 2 hours to measure an absorbance at 450 nm with a plate reader. A reference wavelength was 630 nm. It was confirmed that the absorbance at 450 nm correlated with the cell number.
The above preparation, culture, and measurement were performed with n=3, and Tables 1 to 10 and FIGS. 1 to 10 show the absorbance at the concentration of each peptide solution.

CHO DP-12 = test: Cell growth test and protein production test on each peptide and combination of peptides on coating agent; format: cell-based; details: one type of tripeptide: GPP 1.1 mM, DGP 2.2 mM, GEK 2.1 mM, AGK 2.0 mM, 5 days; for Amount of protein produced, Average / Viability, Average: average n=3; for Amount of protein produced, Average / Amount of protein produced, 1 / Amount of protein produced, 2 / Amount of protein produced, 3: ELISA; for Cells cell count, Average: poly-L-lysine coating, n=3; for Amount of protein produced, 1 / Viability, 1: replicate 1; for Amount of protein produced, 2 / Viability, 2: replicate 2; for Amount of protein produced, 3 / Viability, 3: replicate 3
Experimental: Peptides having the sequences of Gly-Pro-Pro (GPP), Asp-Gly-Pro (DGP), Gly-Glu-Lys (GEK), and Ala-Gly-Lys (AGK) were synthesized to prepare each peptide solution such that the concentration was a concentration at which the cell number increased the most within a range of 0 mM to 5 mM. In other words, Gly-Pro-Pro (GPP) was adjusted to 11 mM, Asp-Gly-Pro (DGP) was adjusted to 22 mM, Gly-Glu-Lys (GEK) was adjusted to 21 mM, and Ala-Gly-Lys (AGK) was adjusted to 20 mM, and an amount of 1/10 of the total culture medium volume was added to each well immediately before the cell culture test such that final concentrations were 1.1 mM, 2.2 mM, 2.1 mM, and 2.0 mM, respectively. Poly-L-lysine (Peptide Institute, Inc., Poly-L-Lysine Hydrochloride, code: 3075) was prepared to 0.1 mg/mL, and 200 μL was dispensed into each well of a 24-well plate, which was left to stand in an incubator at 37° C. for 2 hours. After removing the residual liquid with an aspirator, rinsing was performed with distilled water, irradiation was performed with a UV lamp in a clean bench without a lid, and drying was performed overnight to sterilize. A cell suspension prepared such that CHO DP-12 (ATCC, Cat. No. CRL-12445) was at 2×10^4 cells/well and 500 μL was seeded in a 24-well plate and cultured in an incubator at 37° C. and 5% CO2 for 24 hours. As a culture medium, a DMEM basal medium in which 200 nM of methotrexate and 2 μg/mL of insulin were blended in a DMEM culture medium (Gibco) containing 10% FBS was used.
After removing the culture medium from each well and washing with the DMEM basal medium (500 μL), 450 μL of a new DMEM basal medium was dispensed into each well, and each peptide solution (50 μL) was added (total 500 μL/well) to perform culture for 5 days.
As peptides, in addition to single GPP, DGP, GEK, and AGK, combinations of GPP+GEK, GPP+AGK, DGP+GEK, GEK+AGK, DGP+AGK, GPP+GEK+AGK, GPP+DGP+AGK, and GPP+DGP+GEK were used. A similar culture test was performed using a system containing neither peptide nor FBS as a comparative sample.
In order to measure the amount of protein produced, 100 μL of the culture medium supernatant was recovered in a 1.5 mL tube and diluted to quantitatively determine the amount of protein produced by an ELISA method.
In order to recover the cells, the culture medium in each well was recovered in a 1.5 mL tube to be rinsed with 200 μL of the DMEM basal medium, and the rinsed liquid was also recovered in the same 1.5 mL tube. Thereafter, 100 μL of trypsin was added and incubated for 3 minutes. After rinsing with 300 μL of the DMEM basal medium containing 10% FBS, the rinsed liquid was also recovered in the same 1.5 mL tube. After rinsing again with 200 μL of the DMEM basal medium containing 10% FBS, the rinsed liquid was also recovered in the same 1.5 mL tube.
A centrifugation operation was performed on the cells recovered in the 1.5 mL tube. The centrifugation conditions were 1,000 rpm, 10 minutes, and 4° C.
The supernatant was removed, and 300 μL of Cold PBS (phosphate buffered saline) was added to perform a centrifugation operation under the same conditions. The present operation was repeated twice.
Suspension was carried out with 100 μL of Binding Buffer, and 2 μL of propidium iodide (PI) was added and stirred in the tube to cause a reaction for 15 minutes at room temperature and with light shielding. Thereafter, the viable cell count and the cell viability were measured with a flow cytometer.
The above preparation, culture, and measurement were performed with n=3. Table 17, FIG. 17, Table 20, FIG. 20, Table 23, and FIG. 23 show the viable cell count in each peptide solution. Table 18, FIG. 18, Table 21, FIG. 21, Table 24, and FIG. 24 show the cell viability in each peptide solution. Table 19, FIG. 19, Table 22, FIG. 22, Table 25, and FIG. 25 show the amount of protein produced in each peptide solution.

Compound: NCCCC[C@H](NC(=O)[C@H](CCC(=O)O)NC(=O)CN)C(=O)O [GEK, Gly-Glu-Lys] (H-Gly-Glu-Lys-OH; N-terminus and C-terminus assumed)
- Absorbance (450 nm) (CHO-K1; 0.128 mM peptide): −0.0903
- Absorbance (450 nm) (CHO-K1; 0.257 mM peptide): 0.0657
- Absorbance (450 nm) (CHO-K1; 0.512 mM peptide): 0.3020
- Absorbance (450 nm) (CHO-K1; 1.02 mM peptide): 0.6377
- Absorbance (450 nm) (CHO-K1; 2.05 mM peptide): 1.0050
- Absorbance (450 nm) (CHO-K1; 4.10 mM peptide): 0.5757
- cell growth promotion, order of the peptides (CHO-K1): cell growth was promoted
- Amount of protein produced, Average (CHO DP-12): 5.59 mg/L
- Viability, Average (CHO DP-12): 86.9
- Cells cell count, Average (CHO DP-12): 15.9345 ×10^4
- Amount of protein produced, 1 (CHO DP-12): 6.13 mg/L
- Viability, 1 (CHO DP-12): 86.5
- Amount of protein produced, 2 (CHO DP-12): 4.59 mg/L
- Viability, 2 (CHO DP-12): 87.4
- Amount of protein produced, 3 (CHO DP-12): 6.06 mg/L
- Viability, 3 (CHO DP-12): 86.7

Compound: C[C@H](N)C(=O)NCC(=O)N[C@@H](CCCCN)C(=O)O [AGK, Ala-Gly-Lys] (H-Ala-Gly-Lys-OH; N-terminus and C-terminus assumed)
- Absorbance (450 nm) (CHO-K1; 0.123 mM peptide): 0.0180
- Absorbance (450 nm) (CHO-K1; 0.247 mM peptide): 0.1440
- Absorbance (450 nm) (CHO-K1; 0.494 mM peptide): 0.3360
- Absorbance (450 nm) (CHO-K1; 0.99 mM peptide): 0.5380
- Absorbance (450 nm) (CHO-K1; 1.97 mM peptide): 0.6613
- Absorbance (450 nm) (CHO-K1; 3.95 mM peptide): 0.4693
- cell growth promotion, order of the peptides (CHO-K1): cell growth was promoted
- Amount of protein produced, Average (CHO DP-12): 6.92 mg/L
- Viability, Average (CHO DP-12): 88.5
- Cells cell count, Average (CHO DP-12): 19.0887 ×10^4
- Amount of protein produced, 1 (CHO DP-12): 7.36 mg/L
- Viability, 1 (CHO DP-12): 89.0
- Amount of protein produced, 2 (CHO DP-12): 6.61 mg/L
- Viability, 2 (CHO DP-12): 88.5
- Amount of protein produced, 3 (CHO DP-12): 6.78 mg/L
- Viability, 3 (CHO DP-12): 88.1

Compound: Asp-Gly-Pro [DGP]
- Absorbance (450 nm) (CHO-K1; 0.138 mM peptide): 0.0957
- Absorbance (450 nm) (CHO-K1; 0.278 mM peptide): 0.2464
- Absorbance (450 nm) (CHO-K1; 0.555 mM peptide): 0.4127
- Absorbance (450 nm) (CHO-K1; 1.11 mM peptide): 0.5617
- Absorbance (450 nm) (CHO-K1; 2.22 mM peptide): 0.7657
- Absorbance (450 nm) (CHO-K1; 4.44 mM peptide): 0.4004
- cell growth promotion, order of the peptides (CHO-K1): cell growth was promoted
- Amount of protein produced, Average (CHO DP-12): 5.24 mg/L
- Viability, Average (CHO DP-12): 86.9
- Cells cell count, Average (CHO DP-12): 14.6333 ×10^4
- Amount of protein produced, 1 (CHO DP-12): 5.37 mg/L
- Viability, 1 (CHO DP-12): 86.3
- Amount of protein produced, 2 (CHO DP-12): 4.90 mg/L
- Viability, 2 (CHO DP-12): 87.3
- Amount of protein produced, 3 (CHO DP-12): 5.44 mg/L
- Viability, 3 (CHO DP-12): 87.2

Compound: Gly-Pro-Pro [GPP]
- Absorbance (450 nm) (CHO-K1; 0.137 mM peptide): 0.1163
- Absorbance (450 nm) (CHO-K1; 0.276 mM peptide): 0.2303
- Absorbance (450 nm) (CHO-K1; 0.550 mM peptide): 0.4117
- Absorbance (450 nm) (CHO-K1; 1.10 mM peptide): 0.6443
- Absorbance (450 nm) (CHO-K1; 2.20 mM peptide): 0.5700
- Absorbance (450 nm) (CHO-K1; 4.40 mM peptide): 0.3620
- cell growth promotion, order of the peptides (CHO-K1): cell growth was promoted
- Amount of protein produced, Average (CHO DP-12): 5.86 mg/L
- Viability, Average (CHO DP-12): 88.2
- Cells cell count, Average (CHO DP-12): 15.5502 ×10^4
- Amount of protein produced, 1 (CHO DP-12): 5.78 mg/L
- Viability, 1 (CHO DP-12): 88.9
- Amount of protein produced, 2 (CHO DP-12): 5.31 mg/L
- Viability, 2 (CHO DP-12): 87.9
- Amount of protein produced, 3 (CHO DP-12): 6.50 mg/L
- Viability, 3 (CHO DP-12): 87.9
